Measurements published in publication PMC11933327, “Asymmetric activation of dimeric ATM/Tel1 kinase” (Cell Discovery, 2025).

Assays:
ATM/Tel1 = assay: Endogenous activation of ATM/Tel1 in cultured yeast cells; assay type: cell-based, Schizosaccharomyces pombe; conditions: 0.05% MMS added at OD600 ≈ 4, cells collected 60 min later
Experimental: (§1) Purification of Yeast ATM/Tel1
(§2) S. pombe stain CC5060 (h–leu1-32 ura4- D18 kanMX6:nmt1:TAP-tel1)[1] was grown in YPD medium to the stationary phase. 0.05% MMS(MACKLIN)was added at OD600 ≈ 4 and c ells were collected 60 min later. About 100 g cells were harvested, washed, and resuspended in extraction buffer (50 mM HEPES [pH 7.6], 300 mM ammonium sulfate, 0.5 mM EDTA, 5 mM β-ME, 10% (v/v) glycerol, 0.01% (v/v) NP-40 and protease inhibitors), and a whole-cell extraction was prepared as previously described. This whole -cell extract was selectively precipitated in 30-55% ammonium sulfate and resuspended using binding buffer (50 mM HEPES [pH 7.6], 1 mM EDTA, 10 mM ZnCl2, 5 mM β- ME, and protease inhibitors). […] The ATM/Tel1 elution was flash- frozen in liquid nitrogen, and analyzed by SDS-PAGE and EM examination.
(§3) Expression and Purification of full-length CHK2, MRN (Mre11, Rad50-core, Nbs1) The codon-optimized gene fragments for human full- length CHK2, yeast Mre11, Rad50-core (lacking the coiled-coil motif) were cloned into the pET22b vector with a C-terminal 6× His tag and Nbs1 were cloned into the pET22b vector with a C-terminal 6× His tag and a GST tag, and transformed into E. coli BL21(DE3). […] The eluted CHK2 and MRN proteins were flash-frozen in liquid nitrogen and analyzed by SDS-PAGE and EM. […]

human ATM = conditions: ref [5] Howes, A. C., Perisic, O. & Williams, R. L. Sci. Adv. 9, eadi8291 (2023); cited from earlier work
From the text: Based on a radiolabeled ATP-based kinase assay, which is the “gold standard” for the quantification of protein kinase activity, we managed to achieve a 30-fold increase in ATM/Tel1 activity (Fig. 1a; Supplementary Fig. S3). This level of activati ...

active ATM/Tel1 = target: T1, active ATM/Tel1 (Schizosaccharomyces pombe, UniProt O74630); assay: Surface plasmon resonance, CHK2 immobilized, active ATM/Tel1; assay type: binding; conditions: 20 °C, experiment independently repeated three times
T1 construct: TAP (N, cleaved yes); made in house; host or cells: Schizosaccharomyces pombe strain CC5060 (TAP-tel1 under the nmt1 promoter), treated with 0.05% MMS
T1 sequence (O74630 whole entry): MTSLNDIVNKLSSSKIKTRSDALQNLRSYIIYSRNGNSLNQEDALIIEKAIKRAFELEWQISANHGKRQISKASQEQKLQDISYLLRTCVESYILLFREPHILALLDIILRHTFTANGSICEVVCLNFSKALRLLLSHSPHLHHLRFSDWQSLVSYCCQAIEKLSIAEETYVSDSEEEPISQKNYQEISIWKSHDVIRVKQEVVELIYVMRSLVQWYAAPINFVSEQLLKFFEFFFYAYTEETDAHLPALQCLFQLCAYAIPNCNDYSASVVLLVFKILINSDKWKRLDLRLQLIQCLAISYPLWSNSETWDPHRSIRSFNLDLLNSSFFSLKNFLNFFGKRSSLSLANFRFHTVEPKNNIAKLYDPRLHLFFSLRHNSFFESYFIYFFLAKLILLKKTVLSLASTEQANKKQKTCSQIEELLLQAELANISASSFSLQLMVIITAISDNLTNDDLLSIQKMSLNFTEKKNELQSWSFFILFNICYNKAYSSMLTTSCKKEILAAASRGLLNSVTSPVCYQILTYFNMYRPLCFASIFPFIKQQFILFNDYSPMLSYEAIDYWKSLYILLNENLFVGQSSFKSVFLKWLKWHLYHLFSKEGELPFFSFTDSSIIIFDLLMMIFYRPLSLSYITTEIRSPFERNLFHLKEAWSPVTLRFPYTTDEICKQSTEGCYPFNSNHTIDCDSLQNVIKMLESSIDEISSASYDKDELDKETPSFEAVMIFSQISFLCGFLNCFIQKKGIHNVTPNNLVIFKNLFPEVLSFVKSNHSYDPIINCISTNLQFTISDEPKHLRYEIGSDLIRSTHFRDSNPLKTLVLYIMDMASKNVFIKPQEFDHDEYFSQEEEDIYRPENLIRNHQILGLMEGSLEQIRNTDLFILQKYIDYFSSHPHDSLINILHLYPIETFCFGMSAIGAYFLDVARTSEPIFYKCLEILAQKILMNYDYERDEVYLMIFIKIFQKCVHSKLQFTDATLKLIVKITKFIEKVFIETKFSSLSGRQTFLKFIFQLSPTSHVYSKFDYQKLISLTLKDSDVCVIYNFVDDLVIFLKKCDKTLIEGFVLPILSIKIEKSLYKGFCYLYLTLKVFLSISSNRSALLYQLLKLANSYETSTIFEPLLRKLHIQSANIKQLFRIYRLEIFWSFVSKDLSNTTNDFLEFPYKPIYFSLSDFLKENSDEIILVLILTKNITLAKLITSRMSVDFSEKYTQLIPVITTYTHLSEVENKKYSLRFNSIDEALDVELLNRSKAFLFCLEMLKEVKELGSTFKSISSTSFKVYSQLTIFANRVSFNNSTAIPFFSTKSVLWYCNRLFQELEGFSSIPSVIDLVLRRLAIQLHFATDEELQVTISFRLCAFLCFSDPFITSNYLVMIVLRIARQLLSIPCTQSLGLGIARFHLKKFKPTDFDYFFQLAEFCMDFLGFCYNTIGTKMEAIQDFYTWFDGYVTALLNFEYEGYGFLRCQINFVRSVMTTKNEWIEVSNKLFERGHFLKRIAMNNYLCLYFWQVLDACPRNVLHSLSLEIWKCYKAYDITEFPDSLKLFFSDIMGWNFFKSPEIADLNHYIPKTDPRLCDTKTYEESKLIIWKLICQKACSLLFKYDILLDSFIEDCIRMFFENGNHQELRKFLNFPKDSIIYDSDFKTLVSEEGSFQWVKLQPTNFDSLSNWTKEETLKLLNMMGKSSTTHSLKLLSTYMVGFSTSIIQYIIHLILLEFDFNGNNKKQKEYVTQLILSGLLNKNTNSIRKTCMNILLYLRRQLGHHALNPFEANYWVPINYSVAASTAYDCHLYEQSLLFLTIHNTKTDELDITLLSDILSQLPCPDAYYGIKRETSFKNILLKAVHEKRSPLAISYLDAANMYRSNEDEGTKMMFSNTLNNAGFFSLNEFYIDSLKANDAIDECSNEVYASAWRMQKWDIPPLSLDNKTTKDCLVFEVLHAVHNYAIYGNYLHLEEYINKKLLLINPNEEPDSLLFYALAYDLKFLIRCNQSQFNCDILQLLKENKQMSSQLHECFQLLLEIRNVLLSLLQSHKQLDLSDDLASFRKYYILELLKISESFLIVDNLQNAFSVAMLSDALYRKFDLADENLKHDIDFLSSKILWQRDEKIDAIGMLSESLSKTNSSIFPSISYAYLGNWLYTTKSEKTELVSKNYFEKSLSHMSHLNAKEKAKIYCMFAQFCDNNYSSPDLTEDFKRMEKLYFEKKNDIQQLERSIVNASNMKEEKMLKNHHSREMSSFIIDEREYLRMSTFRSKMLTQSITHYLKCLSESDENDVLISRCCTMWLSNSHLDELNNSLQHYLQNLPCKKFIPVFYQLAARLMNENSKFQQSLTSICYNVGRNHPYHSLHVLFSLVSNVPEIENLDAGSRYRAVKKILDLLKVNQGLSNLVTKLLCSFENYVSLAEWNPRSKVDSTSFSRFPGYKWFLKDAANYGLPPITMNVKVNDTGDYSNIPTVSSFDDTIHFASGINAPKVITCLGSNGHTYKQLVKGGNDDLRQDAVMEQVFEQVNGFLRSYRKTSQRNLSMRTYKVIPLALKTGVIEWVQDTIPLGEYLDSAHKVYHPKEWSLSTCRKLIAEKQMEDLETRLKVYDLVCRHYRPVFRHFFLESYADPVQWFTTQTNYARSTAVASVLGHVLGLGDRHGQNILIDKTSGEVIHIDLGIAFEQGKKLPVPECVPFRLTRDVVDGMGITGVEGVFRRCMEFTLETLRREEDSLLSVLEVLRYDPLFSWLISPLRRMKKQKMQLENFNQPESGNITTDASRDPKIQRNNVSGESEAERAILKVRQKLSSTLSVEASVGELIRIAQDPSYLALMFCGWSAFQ
Experimental: as §1
as §2, with “described.” for “described. This whole -cell extract was selectively precipitated in 30-55% ammonium sulfate and resuspended using binding buffer (50 mM HEPES [pH 7.6], 1 mM EDTA, 10 mM ZnCl2, 5 mM β- ME, and protease inhibitors).”
as §3
(§4) to SDS- PAGE and analyzed by Western blot (WB) using pan- acetylated -Lysine (Rabbit monoclonal, Cat# 9441S, Cell Signaling Technology). and phospho-ATM/ATR substrate (pSQ/pTQ motif, Rabbit monoclonal, Cat# 6966, Cell Signaling Technology) antibodies. […]

active ATM/Tel1 dimer = assay: Cryo-EM structure of active ATM/Tel1 with substrate peptide; assay type: binding, Schizosaccharomyces pombe; conditions: cryo-EM Structure 2, 3.6 Å; active ATM/Tel1 : 329 bp DNA : CHK2 peptide 1:20:200 with AMP-PNP, on ice 1 h
Experimental: The affinity chromatography sample of ATM/Tel1 was diluted to final concentrations of 0.05 mg/ml (50 mM HEPES [pH 7.6], 0.01% (v/v) NP- 40, 1 mM EDTA, 10 mM ZnCl 2, 5 mM β- ME, and protease inhibitors). Negative staining was used to evaluate the protein quality. In brief, 3 µl of freshly purified ATM/Tel1 was applied onto copper grids supported by a thin layer of glow - discharged carbon film (Zhongjingkeyi Technology Co., Ltd). After adsorption for 30 s, uranyl acetate (2% w/v) was used for negative staining at room temperature. The negatively stained grids were examined using FEI Talos L120C operated at 120 KeV. […]
The grids were imaged in a Titan Krios cryo-electron microscope (Thermo Fisher Scientific) operated at 300 keV at a magnification of 81,000 × (corresponding to a calibrated sampling of 1.07 Å per pixel). Movies were recorded by EPU with a Gatan K3 Summit direct electron detector, where each movie was composed of 32 individual frames with an exposure time of 3.8 s and a dose rate of 50 electrons per second per Å2. […]
Beam-induced sample motions were corrected using MotionCorr2[3] software, and contrast transfer function (CTF) parameters were estimated using CTFFIND4[4] software. […] All reported resolutions were calculated from gold standard refinement procedures with the FSC = 0.143 criterion implemented in cryoSPARC[5]. […]

basal ATM/Tel1 = target: T2, basal ATM/Tel1 (Schizosaccharomyces pombe, UniProt O74630); assay: Surface plasmon resonance, CHK2 immobilized, basal ATM/Tel1; assay type: binding; conditions: 20 °C, experiment independently repeated three times
T2 construct: we endogenously purified basal; TAP (N, cleaved yes); made in house; host or cells: Schizosaccharomyces pombe strain CC5060 (TAP-tel1 under the nmt1 promoter)
T2 sequence (O74630 whole entry): as above
Experimental: as §1
as §2, with “described.” for “described. This whole -cell extract was selectively precipitated in 30-55% ammonium sulfate and resuspended using binding buffer (50 mM HEPES [pH 7.6], 1 mM EDTA, 10 mM ZnCl2, 5 mM β- ME, and protease inhibitors).”
as §3, §4

## COS(C)(=O)=O [methylmethane sulfonate]
ATM/Tel1
  activation of cellular ATM/Tel1 (in words): endogenously activated the cellular ATM/Tel1

## OO [H2O2]
Human ATM
  level of activation of human ATM in vitro compared with the 30-fold activation of ATM/Tel1: comparable

## LETVSTQELYSI [CHK2 peptide, 12-residue human CHK2 substrate peptide 63-74, custom-synthesized by Sangon, with an N-terminal NH2 and C-terminal COOH]
Active ATM/Tel1; SPR (Supplementary Fig. S7)
  affinity for active ATM/Tel1 relative to full-length CHK2: comparable to that of the full-length CHK2
Active ATM/Tel1; SPR (Supplementary Fig. S7a)
  binding affinity for active ATM/Tel1 (in words): increased affinity in the active state
Active ATM/Tel1 dimer
  monomers of the active dimer that bind the substrate peptide: only Mono1, but not Mono2, can bind to the CHK2 peptide
Basal ATM/Tel1; SPR (Supplementary Fig. S7)
  reduction of affinity for basal ATM/Tel1 compared to the active state: over 120 fold
Basal ATM/Tel1; SPR (Supplementary Fig. S7b)
  binding affinity for basal ATM/Tel1 (in words): significantly lower affinity
